Square brackets hold non-standard residues; d marks the D form. Peptide text beside a SMILES is read from it. * marks the point of attachment. Phe(ol) = N[C@H](CO)Cc1ccccc1; X1 = OC[C@H](Cc1cccc(F)c1)N*; X2 = OC[C@H](Cc1ccccc1F)N*; Aib = CC(C)(N)C(=O)O
Experiments:
OVCAR-3 = assay: Cytotoxicity against human OVCAR3 cells assessed as decrease in cell viability after 72 hrs by CellTiter 96 AQueous one solution cell proliferation assay; assay type: functional, cell-based; conditions: OVCAR-3, 72 h
MDA-MB-231 = assay: Cytotoxicity against human MDA-MB-231 cells assessed as decrease in cell viability after 72 hrs by CellTiter 96 AQueous one solution cell proliferation assay; conditions: MDA-MB-231, 72 h
MDA-MB-435 = assay: Cytotoxicity against human MDA-MB-435 cells assessed as decrease in cell viability after 72 hrs by CellTiter 96 AQueous one solution cell proliferation assay; assay type: functional, cell-based; conditions: MDA-MB-435, 72 h

SMILES | IC50 (OVCAR-3) [µM] | IC50 (MDA-MB-231) [µM] | IC50 (MDA-MB-435) [µM]
CC(=O)NC(C)(C)C(=O)N[C@@H](C)C(=O)NC(C)(C)C(=O)N[C@@H](C)C(=O)NC(C)(C)C(=O)N[C@@H](C)C(=O)N[C@@H](CCC(N)=O)C(=O)NC(C)(C)C(=O)N[C@H](C(=O)NC(C)(C)C(=O)NCC(=O)N[C@@H](CC(C)C)C(=O)NC(C)(C)C(=O)N1CCC[C@H]1C(=O)N[C@H](C(=O)NC(C)(C)C(=O)NC(C)(C)C(=O)N[C@@H](CCC(N)=O)C(=O)N[C@@H](CCC(N)=O)C(=O)N[C@H](CO)Cc1ccccc1F)C(C)C)C(C)C (Ac-[Aib]A[Aib]A[Aib]AQ[Aib]V[Aib]GL[Aib]PV[Aib][Aib]QQ-X2) | 5 | – | –
CC(=O)NC(C)(C)C(=O)N[C@@H](C)C(=O)NC(C)(C)C(=O)N[C@@H](C)C(=O)NC(C)(C)C(=O)N[C@@H](C)C(=O)N[C@@H](CCC(N)=O)C(=O)NC(C)(C)C(=O)N[C@H](C(=O)NC(C)(C)C(=O)NCC(=O)N[C@@H](CC(C)C)C(=O)NC(C)(C)C(=O)N1CCC[C@H]1C(=O)N[C@H](C(=O)NC(C)(C)C(=O)NC(C)(C)C(=O)N[C@@H](CCC(N)=O)C(=O)N[C@@H](CCC(N)=O)C(=O)N[C@H](CO)Cc1ccccc1)C(C)C)C(C)C (Ac-[Aib]A[Aib]A[Aib]AQ[Aib]V[Aib]GL[Aib]PV[Aib][Aib]QQ[Phe(ol)]) | 5.1 | 5.1 | 4.8
CC(=O)NC(C)(C)C(=O)N[C@@H](C)C(=O)NC(C)(C)C(=O)N[C@@H](C)C(=O)NC(C)(C)C(=O)N[C@@H](C)C(=O)N[C@@H](CCC(N)=O)C(=O)NC(C)(C)C(=O)N[C@H](C(=O)NC(C)(C)C(=O)NCC(=O)N[C@@H](CC(C)C)C(=O)NC(C)(C)C(=O)N1CCC[C@H]1C(=O)N[C@H](C(=O)NC(C)(C)C(=O)NC(C)(C)C(=O)N[C@@H](CCC(N)=O)C(=O)N[C@@H](CCC(N)=O)C(=O)N[C@H](CO)Cc1cccc(F)c1)C(C)C)C(C)C (Ac-[Aib]A[Aib]A[Aib]AQ[Aib]V[Aib]GL[Aib]PV[Aib][Aib]QQ-X1) | 4.4 | – | –
CC(=O)O[C@H]1C(=O)[C@@]2(C)[C@H]([C@H](OC(=O)c3ccccc3)[C@]3(O)C[C@H](OC(=O)[C@H](O)[C@@H](NC(=O)c4ccccc4)c4ccccc4)C(C)=C1C3(C)C)[C@]1(OC(C)=O)CO[C@@H]1C[C@@H]2O [PACLITAXEL] | 0.002 | – | –

From ChEMBL document CHEMBL4190211, “Biosynthesis of Fluorinated Peptaibols Using a Site-Directed Building Block Incorporation Approach” (J Nat Prod, 2017)
